Consider 23 molecules from publication PMC8365601, “Terphenyl-Based Small-Molecule Inhibitors of Programmed Cell Death-1/Programmed Death-Ligand 1 Protein–Protein Interaction” (Journal of Medicinal Chemistry, 2021).

Read-outs that look alike come from different tables or passages of the source. A value given as a limit tells only on which side of the number the result lay.

One assay concerns the target PD-1/PD-L1 complex (Homo sapiens, UniProt Q9NZQ7). The assay is described as follows: HTRF assay of PD-1/PD-L1 complex dissociation (CisBio).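 On all read-outs here: human PD-L1 at 5 nM with human PD-1 at 50 nM, TR-FRET signal read after 2 h at room temperature, background removed via negative control and scaled to positive control.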 The conditions noted are these: for remaining activity at 5 µM / remaining activity at 50 µM / remaining activity at 0.005 µM: 2 h; for % of undissociated complex: at 50 μM, Table S1; for HTRF % of the undissociated complex: determined at 50 μM inhibitor (footnote a), Table 2; for % of the undissociated complex: 5 μM; for IC50: HTRF, Table 4, <1.00 = limit of quantification reached. On the technique in general: TR-FRET usually uses a lanthanide donor and a delayed reading to cut background.

In assay [1] the test system is primary CD4+ and CD8+ T cells (PBMCs). As to the kind of experiment: T-cell activation (TCA) assay, PBMCs with CHO/TCRAct/PD-L1 cells, flow cytometry. It counts as cell-based, human. The conditions noted are these: 48 h; compounds 0.1, 0.5, 2.5 μM; mAbs 5 μg/mL. Here is the method: A standard ICB assay relies on artificial Jurkat-ECs, which are surrogates of T-cells. To verify the potential of the compounds to reactivate the PD-L1-blocked primary T cells, a modified assay termed T-cell activation (TCA) was carried out.[32] In this assay, human primary peripheral blood mononuclear cells (PBMCs) are allowed to make contact with CHO/TCRAct/PD-L1 cells alone or in the presence of PD-1/PD-L1 blockers, and the activation of CD4^+ and CD8^+ T cell is monitored by flow cytometry.
Anticoagulant citrate dextrose-A-treated blood from healthy donors was purchased from the Regional Center of Blood Donation and Blood Therapy in Krakow, Poland. PBMCs were isolated from whole blood by density gradient centrifugation using Pancoll human separating solution (PAN-Biotech GmbH, Aidenbach, Germany). The separated cells were washed and resuspended in RPMI 1640 medium (Biowest) containing 10% FBS (Biowest). PBMCs were added at an amount of 3 × 10^5 to CHO, CHO/TCRAct, or CHO/TCRAct/PD-L1 cells preseeded on 24-well plates in the presence of either anti-PD-L1 mAbs (at the final concentration 5 μg/mL): durvalumab (Selleckchem), atezolizumab (Selleckchem), or avelumab (MedChemExpress) or tested compounds at the concentrations 0.1, 0.5, and 2.5 μM. Untreated cells were used as controls for antibody treatment, while DMSO-treated cells [0.1% (v/v)] were used as controls for compound treatment. The cells were incubated for 48 h (37 °C, 5% CO2) and then detached from the plates with TrypLe Select Enzyme (Thermo Fisher). PBMCs were stained for 20 min at room temperature with the antibodies: anti-CD4-FITC, anti-CD8-BV510, anti-CD69-APC, anti-CD25-PE, anti-HLA-DR-PerCP, and anti-PD1-PECy7 (Becton Dickinson Biosciences, BD). Following two washing steps, the cells were analyzed with a FACSCanto II cytometer. Data analysis was carried out with FlowJo software, followed by statistical significance calculations done with Origin Pro 2020 software (OriginLab). Statistical significance was analyzed with one-way analysis of variance (ANOVA), followed by the Fisher’s posthoc test: *p < 0.05, **p < 0.01, […].
(In flow cytometry, cells or beads pass a laser one at a time.)

Where [2] appears, read: read-out: % of the undissociated complex in HTRF.
Where [3] appears, read: read-out: % of undissociated complex at 5 μM.
Where [4] appears, read: read-out: HTRF % of the undissociated complex at 5 μM.
Setting [5] is: read-out: % of undissociated complex at 5 nM.
[6] abbreviates: read-out: HTRF % of the undissociated complex at 5 nM.

PD-1/PD-L1 complex, sequence (Q9NZQ7 19-238 limits assumed, one chain of several): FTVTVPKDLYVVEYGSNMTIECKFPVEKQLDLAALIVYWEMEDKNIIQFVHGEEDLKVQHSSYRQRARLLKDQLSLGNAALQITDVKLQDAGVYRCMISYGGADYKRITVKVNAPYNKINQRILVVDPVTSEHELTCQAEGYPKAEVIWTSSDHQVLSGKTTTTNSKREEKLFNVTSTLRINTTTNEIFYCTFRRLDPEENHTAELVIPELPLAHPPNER
Experimental for PD-1/PD-L1 complex: HTRF was performed using the certified CisBio assay according to the manufacturer’s guidelines. The experiments were performed at 5 nM h-PD-L1 and 50 nM hPD-1 in the final formulation at 20 μL final volume in the well. To determine the half-maximal inhibitory concentration (IC50) of tested compounds, measurements were performed on two individual dilution series, unless states otherwise. After mixing all components according to the CisBio protocol, the plate was left for 2 h incubation at room temperature, followed by time-resolved fluorescence energy transfer (TR-FRET) measurement on Tecan Spark 20M. Collected data were background-subtracted on the negative control, normalized on the positive control, averaged, and fitted with normalized Hill’s equation to determine the IC50 value using Mathematica 12.

For `Cc1c(-c2cccc(COc3cccc(C(=O)O)c3)c2)cccc1-c1ccc2c(c1)OCCO2` [5j, 3-((3′-(Benzo-1,4-dioxan-6-yl)-2′-methyl-[1,1′-biphenyl]-3-yl)methoxy)benzoic Acid], the remaining activity at 5 µM at PD-1/PD-L1 complex (setting [2]), on PD-1/PD-L1 complex (setting [3]) and at PD-1/PD-L1 complex (setting [4]) was 90% each time.
`Cc1c(-c2cccc(COc3ccc(-c4cccnc4)c(C=O)c3)c2)cccc1-c1ccc2c(c1)OCCO2` [5l, 5-((3′-(Benzo-1,4-dioxan-6-yl)-2′-methyl-[1,1′-biphenyl]-3-yl)methoxy)-2-(yridine-3-yl)benzaldehyde]: the remaining activity at 50 µM on PD-1/PD-L1 complex (setting [2]) was 95%. For the same molecule, at PD-1/PD-L1 complex, the “% of undissociated complex” value amounted to 95% and the “HTRF % of the undissociated complex” value was 95^[a] %.
Regarding `Cc1c(-c2cccc(COc3cc(C(=O)O)on3)c2)cccc1-c1ccc2c(c1)OCCO2` [5n, 3-((3′-(Benzo-1,4-dioxan-6-yl)-2′-methyl-[1,1′-biphenyl]-3-yl)methoxy)isoxazole-5-carboxylic Acid], the remaining activity at 5 µM on PD-1/PD-L1 complex (setting [2]), at PD-1/PD-L1 complex (setting [3]) and on PD-1/PD-L1 complex (setting [4]) was 77% each time.
Consider `Cc1c(-c2ccc3c(c2)OCCO3)cccc1-c1ccccc1COc1cccc(C(=O)O)c1` [5p, 3-((3′-(Benzo-1,4-dioxan-6-yl)-2′-methyl-[1,1′-biphenyl]-2-yl)methoxy)benzoic Acid], for which, at PD-1/PD-L1 complex (setting [2]), the remaining activity at 50 µM was 87%. On PD-1/PD-L1 complex, the “% of undissociated complex” value was found to be 87% and the “HTRF % of the undissociated complex” value was 87^[a] %.
As to `Cc1c(-c2ccc3c(c2)OCCO3)cccc1-c1ccccc1COc1cc(C(=O)O)on1` [5r, 3-((3′-(Benzo-1,4-dioxan-6-yl)-2′-methyl-[1,1′-biphenyl]-2-yl)methoxy)isoxazole-5-carboxylic Acid], the remaining activity at 5 µM on PD-1/PD-L1 complex (setting [2]), at PD-1/PD-L1 complex (setting [3]) and on PD-1/PD-L1 complex (setting [4]) was 100% throughout.
For `Cc1c(-c2ccc(CN3CCOCC3)cc2)cccc1-c1ccc2c(c1)OCCO2` [6a, 4-((3′-(Benzo-1,4-dioxan-6-yl)-2′-methyl-[1,1′-biphenyl]-4-yl)methyl)morpholine], the remaining activity at 5 µM at PD-1/PD-L1 complex (setting [2]), on PD-1/PD-L1 complex (setting [3]) and on PD-1/PD-L1 complex (setting [4]) was 55% in each case.
Consider `Cc1c(-c2ccc(CN3CCNCC3)cc2)cccc1-c1ccc2c(c1)OCCO2` [6b, 4-((3′-(Benzo-1,4-dioxan-6-yl)-2′-methyl-[1,1′-biphenyl]-4-yl)methyl)piperazine], for which the “% of the undissociated complex” value at PD-1/PD-L1 complex was found to be 5%. Besides, the remaining activity at 5 µM at PD-1/PD-L1 complex (setting [2]), at PD-1/PD-L1 complex (setting [3]) and at PD-1/PD-L1 complex (setting [4]) was 5% each time.
Consider `Cc1c(-c2cccc(CN3CCNCC3)c2)cccc1-c1ccc2c(c1)OCCO2` [6c, 1-((3′-(Benzo-1,4-dioxan-6-yl)-2′-methyl-[1,1′-biphenyl]-3-yl)methyl)piperazine], for which, at PD-1/PD-L1 complex, the “% of the undissociated complex” value was “about 56%”. Moreover, the remaining activity at 5 µM on PD-1/PD-L1 complex (setting [2]), on PD-1/PD-L1 complex (setting [3]) and on PD-1/PD-L1 complex (setting [4]) was 56% in each case.
Consider `COc1cc(-c2cccc(-c3ccc4c(c3)OCCO4)c2C)ccc1CN1CCNCC1` [6d, 1-((3′-(Benzo-1,4-dioxan-6-yl)-3-methoxy-2′-methyl-[1,1′-biphenyl]-4-yl)methyl)piperazine], for which the remaining activity at 0.005 µM on PD-1/PD-L1 complex (setting [5]) and on PD-1/PD-L1 complex (setting [6]) was 63% in each case.
Consider `Cc1c(-c2ccc(CN3CCNCC3)c(OCc3cccc(C#N)c3)c2)cccc1-c1ccc2c(c1)OCCO2` [6e, 3-(((3′-(Benzo-1,4-dioxan-6-yl)-2′-methyl-4-(piperazin-1-ylmethyl)-[1,1′-biphenyl]-3-yl)oxy)methyl)benzonitrile], for which the remaining activity at 0.005 µM at PD-1/PD-L1 complex (setting [5]) and at PD-1/PD-L1 complex (setting [6]) was 88% throughout.
Consider `CCOc1cc(-c2cccc(-c3ccc4c(c3)OCCO4)c2Cl)ccc1CNCCNC(C)=O` [7b, N-(2-(((3′-(Benzo-1,4-dioxan-6-yl)-2′-chloro-3-ethoxy-[1,1′-biphenyl]-4-yl)methyl)amino)ethyl)acetamide], for which the remaining activity at 0.005 µM at PD-1/PD-L1 complex (setting [5]) and on PD-1/PD-L1 complex (setting [6]) was 5% each time.
Take `CC(=O)NCCNCc1ccc(-c2cccc(-c3ccc4c(c3)OCCO4)c2Cl)cc1OC(C)C` [7c, N-(2-(((3′-(Benzo-1,4-dioxan-6-yl)-2′-chloro-3-isopropoxy-[1,1′-biphenyl]-4-yl)methyl)amino)ethyl)acetamide]: the remaining activity at 0.005 µM at PD-1/PD-L1 complex (setting [5]) and at PD-1/PD-L1 complex (setting [6]) was 5% in each case.
`CC(=O)NCCNCc1ccc(-c2cccc(-c3ccc4c(c3)OCCO4)c2Cl)cc1OCCC(C)C` [7d, N-(2-(((3′-(Benzo-1,4-dioxan-6-yl)-2′-chloro-3-isopentyloxy-[1,1′-biphenyl]-4-yl)methyl)amino)ethyl)acetamide]: the remaining activity at 0.005 µM on PD-1/PD-L1 complex (setting [5]) and at PD-1/PD-L1 complex (setting [6]) was 65% in each case.
Turning to `CC(=O)NCCNCc1ccc(-c2cccc(-c3ccc4c(c3)OCCO4)c2Cl)cc1OCC1CCC1` [7f, N-(2-(((3′-(Benzo-1,4-dioxan-6-yl)-2′-chloro-3-(cyclobutylmethoxy)-[1,1′-biphenyl]-4-yl)methyl)amino)ethyl)acetamide], the remaining activity at 0.005 µM at PD-1/PD-L1 complex (setting [5]) and on PD-1/PD-L1 complex (setting [6]) was 53% throughout.
Take `CC(=O)NCCNCc1ccc(-c2cccc(-c3ccc4c(c3)OCCO4)c2Cl)cc1OCC1CCCC1` [7g, N-(2-(((3′-(Benzo-1,4-dioxan-6-yl)-2′-chloro-3-(cyclopentylmethoxy)-[1,1′-biphenyl]-4-yl)methyl)amino)ethyl)acetamide]: the remaining activity at 0.005 µM at PD-1/PD-L1 complex (setting [5]) and at PD-1/PD-L1 complex (setting [6]) was 76% in each case.
Regarding `CC(=O)NCCNCc1ccc(-c2cccc(-c3ccc4c(c3)OCCO4)c2Cl)cc1OCc1cccc(-c2cccc(C#N)c2)c1` [7h, N-(2-(((3′-(Benzo-1,4-dioxan-6-yl)-2′-chloro-3-((3′-cyano-[1,1′-biphenyl]-3-yl)methoxy)-[1,1′-biphenyl]-4-yl)methyl)amino)ethyl)acetamide], the remaining activity at 0.005 µM on PD-1/PD-L1 complex (setting [5]) and on PD-1/PD-L1 complex (setting [6]) was 100% throughout.
In general, IC50 refers to the concentration that inhibits the measured activity by half. Regarding `COc1cc(-c2cccc(-c3ccc4c(c3)OCCO4)c2Cl)ccc1CN1CCNCC1` [8a, 1-((3′-(Benzo-1,4-dioxan-6-yl)-2′-chloro-3-methoxy-[1,1′-biphenyl]-4-yl)methyl)piperazine], the remaining activity at 0.005 µM on PD-1/PD-L1 complex (setting [5]) and on PD-1/PD-L1 complex (setting [6]) was 38% each time. The molecule also showed an IC50 against PD-1/PD-L1 complex of 18.09 ± 0.09 nM.
For `COc1cc(-c2cccc(-c3ccc4c(c3)OCCO4)c2Cl)ccc1CN1CCN(C(N)=O)CC1` [8b, 4-((3′-(Benzo-1,4-dioxan-6-yl)-2′-chloro-3-methoxy-[1,1′-biphenyl]-4-yl)methyl)piperazine-1-carboxamide], the remaining activity at 0.005 µM on PD-1/PD-L1 complex (setting [5]) and on PD-1/PD-L1 complex (setting [6]) was 28% in each case. Also, on PD-1/PD-L1 complex, the IC50 is less than 1 nM.
For `COc1cc(-c2cccc(-c3ccc4c(c3)OCCO4)c2Cl)ccc1CN1CCN(C(C)=O)CC1` [8c, 1-(4-((3′-(Benzo-1,4-dioxan-6-yl)-2′-chloro-3-methoxy-[1,1′-biphenyl]-4-yl)methyl)piperazin-1-yl)ethan-1-one], the remaining activity at 0.005 µM on PD-1/PD-L1 complex (setting [5]) and at PD-1/PD-L1 complex (setting [6]) was 40% throughout. For the same molecule, the IC50 on PD-1/PD-L1 complex was less than 1 nM.
Take `COc1cc(-c2cccc(-c3ccc4c(c3)OCCO4)c2Cl)ccc1CN1CCN(C(=O)CN)CC1` [8d, 2-Amino-1-(4-((3′-(benzo-1,4-dioxan-6-yl)-2′-chloro-3-methoxy-[1,1′-biphenyl]-4-yl)methyl)piperazin-1-yl)ethan-1-one]: the “% of the undissociated (remaining) complex” value on PD-1/PD-L1 complex (5 nM ligand) is listed as 5%. Also, the remaining activity at 0.005 µM on PD-1/PD-L1 complex (setting [5]) and at PD-1/PD-L1 complex (setting [6]) was 5% each time. On PD-1/PD-L1 complex, this molecule yielded an IC50 of less than 1 nM.
Turning to `COc1cc(-c2cccc(-c3ccc4c(c3)OCCO4)c2Cl)ccc1CN1CCN(S(C)(=O)=O)CC1` [8e, 1-((3′-(Benzo-1,4-dioxan-6-yl)-2′-chloro-3-methoxy-[1,1′-biphenyl]-4-yl)methyl)-4-(methylsulfonyl)piperazine], the remaining activity at 0.005 µM at PD-1/PD-L1 complex (setting [5]) and on PD-1/PD-L1 complex (setting [6]) was 88% each time. At PD-1/PD-L1 complex, this molecule returned an IC50 of 104 ± 2.17 nM.
As for “avelumab: therapeutic anti-PD-L1 antibody”, the “numbers of PD-1-positive T cells” value in assay [1] was “increases the expression of PD-1 on T-cells”.
Same read-out and setting: the result for “durvalumab: therapeutic anti-PD-L1 antibody” reads “increases the expression of PD-1 on T-cells”.
